US20170266152A1, “PHARMACEUTICAL COMPOSITION, METHODS FOR TREATING AND USES THEREOF” (Boehringer Ingelheim International GmbH, priority 2016, published 2017)

How the values were obtained:
[1] = metformin on its own, in the diabetic; cited from earlier work
[2] = Clinical studies of haemodynamic, vascular and autonomic cardiovascular effects of empagliflozin; format: in vivo
From the text: It may be assumed that altered glucose and sodium gradients within the kidney may generate a sympathoinhibitory afferent renal nerve signal. The lack of sympathetic activation may contribute to a beneficial cardiovascular and renal profile of empagliflozin (cardiorenal axis). Based on clinical and non-clinical studies including mechanistic considerations, such as the effect of empagliflozin on human autonomic cardiovascular regulation, the use of empagliflozin in the treatment and prevention of certain diseases and conditions, in particular in chronic heart failure, acute heart failure and chronic kidney disease, is described hereinbefore and hereinafter.

[3] = patients with type 2 diabetes mellitus and high cardiovascular risk; cited from earlier work
[4] = Cherney et al. 2014; cited from earlier work
[5] = crystalline form (WO 2006/117359, WO 2011/039107); cited from earlier work

Row | SMILES | average improvement in the HbA1c value [1] | reflex-mediated sympathetic activation ([2]; in contrast to increases observed with diuretics) | blood pressure ([2]; treatment with empagliflozin) | heart rate ([2]; treatment with empagliflozin) | rate pressure product (RPP), surrogate marker of cardiac oxygen demand ([2]; treatment with empagliflozin) | risk of hospitalization for heart failure [3] | arterial stiffness [4] | direct vascular effects [4] | diuretic effect [4] | physico-chemical stability [5] | solubility [5]
1 | CN(C)C(=N)N=C(N)N [metformin] | 1.0-1.5% | – | – | – | – | – | – | – | – | – | –
2 | OC[C@H]1O[C@@H](c2ccc(Cl)c(Cc3ccc(O[C@H]4CCOC4)cc3)c2)[C@H](O)[C@@H](O)[C@@H]1O [empagliflozin, 1-chloro-4-(β-D-glucopyranos-1-yl)-2-[4-((S)-tetrahydrofuran-3-yloxy)-benzyl]-benzene] | – | not being associated with clinically relevant reflex-mediated sympathetic activation | blood pressure reductions | without clinically relevant changes of the heart rate | improving rate pressure product | reduced the risk | reduced arterial stiffness | direct vascular effects | shows a diuretic effect | physico-chemically stable | good solubility properties
